Source: article PMC6400287 (Cell reports, 2018)

Target: T1, REV-ERBα (Homo sapiens, UniProt P20393)
T1 sequence (P20393 1-614): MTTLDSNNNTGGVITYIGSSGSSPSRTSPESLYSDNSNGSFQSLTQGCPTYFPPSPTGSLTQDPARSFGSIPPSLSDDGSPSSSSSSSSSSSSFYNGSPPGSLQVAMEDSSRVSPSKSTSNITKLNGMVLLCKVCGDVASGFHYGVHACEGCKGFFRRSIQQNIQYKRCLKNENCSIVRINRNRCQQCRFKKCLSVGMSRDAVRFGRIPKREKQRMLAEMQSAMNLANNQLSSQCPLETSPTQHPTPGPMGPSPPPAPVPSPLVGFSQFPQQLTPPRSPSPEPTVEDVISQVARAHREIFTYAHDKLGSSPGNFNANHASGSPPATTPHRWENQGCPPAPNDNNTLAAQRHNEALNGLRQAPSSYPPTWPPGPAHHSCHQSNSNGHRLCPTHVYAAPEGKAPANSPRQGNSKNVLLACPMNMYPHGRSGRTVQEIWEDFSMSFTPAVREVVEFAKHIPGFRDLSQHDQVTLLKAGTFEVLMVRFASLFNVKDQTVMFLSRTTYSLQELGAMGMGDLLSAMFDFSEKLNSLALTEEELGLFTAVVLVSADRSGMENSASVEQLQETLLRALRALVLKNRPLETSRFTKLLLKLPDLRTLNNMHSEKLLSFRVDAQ
Experiment: cotransfection Il17a+CNS5 luciferase reporter assay in HEK293 cells
Format: cell-based

## CCOC(=O)N1CCC(CN(Cc2ccc(Cl)cc2)Cc2ccc([N+](=O)[O-])s2)C1 (stereo not shown) [SR9009]
  cotransfection Il17a+CNS5 luciferase reporter assay in HEK293 cells: Both SR9009 and SR12418 dose-dependently inhibited Il17a lucif-erase activity at REV-ERBα and REV-ERBβ
